We go through three molecules from patent publication US8088567B2, “Human immortalised neural precursor cell line” (NsGene A/S, priority 2005, dated 2012).

Experiment [1] deals with NGC-407 & U343MGa-cl 2:6 cells. The experiment is described as follows: Gap junction communication by calcein dye transfer, NGC-407 to U343MGa-cl 2:6. It is filed as cell-based, human. The note with it: PB 0.5 mM donor, 4 mM recipient for 72 hours, 4 hours co-culture at 0.5 mM. How it is done:
Donor human embryonic neural stem cells (NGC-407) and recipient human glioblastoma cells (U343MGa-cl 2:6) were grown each in 2 separate 35 mm Petri dishes (1×10^5/dish). For NGC-407 cells the plates were poly-L-lysine (Sigma) coated and the medium was DMEM/F12 1:1 with glutamax I (Invitrogen) containing 40 ng/ml bFGF2 (R&D Systems), 20 ng/ml rhEGF, 1× N2 supplement, 1× non-essential amino acid, 5 mM HEPES buffer solution (from Invitrogen), 0.5% human serum albumin and 6 g/L D-glucose (from Sigma). The recipient cells were grown in DMEM containing 10% FBS, 100 units/ml penicillin and 100 μg/ml streptomycin (from Invitrogen). When the cells were approx. 60% confluent, treatment with 0 & 0.5 mM 4-Phenyl Butyrate (PB) for donor cells and 0 & 4 mM PB for recipient cells was started and continued for 72 hours. The donor cells were then double labelled by incubating with 1 ml of cell medium containing 10 μM Dil and 5 μM Calcein-AM (Molecular Probes) for 20 min. After aspiration of the dye containing medium the cells were washed 4-5 times with pure medium and then with PBS to get rid of free dye. After a very brief trypsinization the cells were centrifuged and resuspended in co-culture medium (donor cell medium including 0.5% FBS). The medium of recipient cells was replaced by co-culture medium and 5×10^4 donor cells were added to one recipient plate. […]

Experiment [2] has as its system NGC-407 cells. The experiment is described as follows: Gap junction communication by fluorescent dye transfer between NGC-407 cells. It is filed as cell-based, human. The following applies: differentiating and proliferating conditions. As for the experimental part:
(§1) This was analyzed semi-quantitatively/qualitatively by using fluorescent dye transfer techniques. It is evident that the GJC is enhanced by 4-PB both under differentiating and proliferating conditions in vitro. This is relevant since the in vivo environment may present transplanted cells with conditions that stimulate neither differentiation nor proliferation.

Experiment [3] concerns NGC-407 cells and U87 gioblastoma cells. In words: Gap junction communication by fluorescent dye transfer, NGC-407 and U87. It is filed as cell-based, human. The note with it: differentiating and proliferating conditions. How it is done:
as §1

The test system of experiment [4] is U87MG xenograft tumor. The experiment is described as follows: In vivo migration of GFP-expressing NGC-407 cells in nude rat model of human glioblastoma multiforme. Details: species or system nude rats. The note with it: PB 250 mg/kg intraperitoneally twice daily, 2 weeks. How it is done: 8-9 weeks old athymic nude male rats (rnu/rnu; Harlan, Germany) with an average weight of 200 g were used in our human glioblastoma multiforme xenograft model. They were housed in a group of 3 in standardized big cages in 50-70% relative humidity and 20°-24° C. temperature with 12/12 day/night variation. Food (Ad libitum), water and other materials used for these immunocompromised animals were autoclaved before use. Animals were anesthesitized by isoflurane inhalation and the head was fixed in a stereo tactic apparatus. Under microscopic guidance a burr hole of 1 mm diameter was made over the right hemisphere, 2 mm right lateral to the bregma. Using a Hamilton syringe of 5 μl volume 1.5×10^5 U87MG cells in 3 μl volume were slowly injected through the burr hole at a depth of 3.5 mm from the surface to reach the corpus callosum.
2×10^6 neural progenitors (NGC-407) recombinantly expressing green fluorescent protein (GFP), were plated in a 100 mm Petri dish and were grown as neurospheres for 48 hours. […]
Histopathological analysis of the sections was carried out by haematoxylin and eosin staining to determine the size and location of the implants. […] Immunohistochemically the tumor location was determined by correlating with the histological analysis and by the cell density while the sections were counter-stained with hoechst.

For experiment [5], the system named is NGC-407 wt cells. The experiment is described as follows: Cell killing effect of AZT, XTT viability assay, parental cells. In kind it is cell-based, human. The following applies: parental NGC-407 cell line, 120 hours drug exposure. As for the experimental part: Cell culture The human neuronal progenitor cell line NGC-407 was cultured in DMEM/F12 (Gibco #31331-028) conditioned with Human Serum Albunim (HSA) (Sigma #A 1653), N2 (Gibco #17502-048), B27 (Gibco #17504-044), Glucose (Sigma #G8769), bFGF (R&D Systems #233-FB), EGF (R& Systems #236-EG), MEM NEAA, x100 (Gibco #11140-035), HEPES (Gibco #15630-056), in poly-L-lysine (Sigma #P4832) coated flasks/Plates (CM-Lab, Denmark). Cells were grown at 37° C. and 5% CO2 in a humidified incubator.
Exponentially growing NGC-407 wt and tomato kinase (ZG561) expressing cells were plated at a density of 5.000 cells/well in poly-L-lysine coated 96-well plates in 100 μl conditioned medium and incubated 37° C. in a humidified incubator with a gas phase of 5% CO2. After 48 hours, medium was replaced with medium containing varying concentrations of AZT starting at 20 mM and down. […] The chemo resistance of cultured cells was monitored by the surviving cell fraction as a function of the drug concentration. Viability of cells was determined via the colorimetric XTT assay (XTT kit II-Roche, cat no. 1465015). […] The absorbance at 450 and 690 nm was determined using an ELISA plate reader (Ascent, ThermoLab). The IC50 value (50% inhibition concentration) of the investigated compound was calculated as the mean value of each experiment using SigmaPlot® (Dyrberg Trading, DK).
(Tetrazolium assays rely on reduction of a dye to a coloured formazan, in cell work by metabolically active cells.)

For experiment [6], the system named is tomato kinase (ZG561) expressing NGC-407 cells. The experiment is described as follows: Cell killing effect of AZT, XTT viability assay, tomato kinase expressing cells. In kind it is cell-based, human. As for the experimental part:
The constructed pLHCXZ (Clontech) plasmid vector pZG561 (coding for a Tomato Thymidine kinase I with a C-terminal deletion of 26 amino acids, WO 03/100045) and pVPack-GP (Stratagene) plus pVPack-VSV-G (Stratagene) were transfected into the packaging cells using LipofectAMINE PLUS (Invitrogen-Life Technologies, Inc.) according to the protocol provided by the supplier. The medium from the transfected cells, cultured in DMEM (Invitrogen), was collected 48 and 72 hours post transfection, filtered through a 0.45 μm filter, pelleted by ultracentrifugation (50.000g, 90 min at 4° C.) and dissolved in DMEM (Invitrogen). The titer of the virus was determined by reverse transcriptase assay. […]
The day before transduction, 1×10^6 cells/well were seeded in 6-well plates. […] Subsequently cells were ready for experiments.
Exponentially growing NGC-407 wt and tomato kinase (ZG561) expressing cells were plated at a density of 5.000 cells/well in poly-L-lysine coated 96-well plates in 100 μl conditioned medium and incubated 37° C. in a humidified incubator with a gas phase of 5% CO2. […] The chemo resistance of cultured cells was monitored by the surviving cell fraction as a function of the drug concentration. Viability of cells was determined via the colorimetric XTT assay (XTT kit II-Roche, cat no. 1465015). […] The absorbance at 450 and 690 nm was determined using an ELISA plate reader (Ascent, ThermoLab). […]

Experiment [7] relates to transfected cell line. The following applies: cited from earlier work.

“Also recorded” adds a separate entry of the source.

On to `O=C(O)CCCc1ccccc1` [4-PB, 4-Phenyl Butyrate], for which the “gap junction communication NGC-407 to U343MGa-cl 2:6 (calcein transfer)” value in experiment [1] is reported as “significantly enhanced”; in experiment [1] (listed as PB), “number of green recipient cells has also been significantly increased”. Besides, the “gap junction communication (GJC) between NGC-407 cells” value in experiment [2] was “enhances the gap junction communication”. For the same molecule, the “gap junction communication (GJC) between NGC-407 cells and U87 gioblastoma cells” value in experiment [3] is “enhances the gap junction communication”. Further, the “GFP staining / GFP positive cells around and inside the tumor” value in experiment [4] is reported as “enhanced the GFP staining; also recorded: increases the number of GFP positive cells”.
One may read the IC50 as the point on the concentration scale where inhibition reaches its midpoint. As for `Cc1cn([C@H]2C[C@H](N=[N+]=[N-])[C@@H](CO)O2)c(=O)[nH]c1=O` [AZT], the IC50 in experiment [5] was found to be 11.8 mM; in experiment [6] (Hygromycin selected ZG561 (tomato TK) NGC-407 cells, 120 hours drug exposure, XTT), 0.051 mM. In addition, in experiment [6] (ZG561 cells versus parental cells), the “Sensitisation of NGC-407 cells towards AZT by Tomato Thymidine kinase” value came to 230 fold.

B1: B5: mutant Drosophila melanogaster deoxyribonucleoside kinase variant, SEQ ID NO 5 (protein)
chain: MAEAASCARKGTKYAEGTQPFTVLIEGNIGSGKTTYLNHFEKYKNDICLLTEPVEKWRNVNGVNLLELMYKDPKKWAMPFQSYATLTMLQSHTAPTNKKLKIMERSIFSARYCFVENMRRNGSLEQGMYNTLEEWYKFIEESIHVQADLIIYLRTSPEVAYERIRQRARSEESCVPLKYLQELHELHEDWLIHQRRPQSCKVLVLDADLDLENIGTEYQRSESSIFDAISSNQQPSPVPVSPSKRQRVAR
modifications: Drosophila melanogaster
With B1, the “degree of activation for gemcitabine relative to wild type Dm dNK” value in experiment [7] is reported as “approximately 50 times”.
